Source: ChEMBL document CHEMBL3758159, “Polycyclic amines as chloroquine resistance modulating agents in Plasmodium falciparum” (Bioorg Med Chem Lett, 2016)
Calls of active or inactive are those of the source. No cut-off for these calls is given here.

Tests used:
[1] = tested on: Plasmodium falciparum; test: Antiplasmodial activity against chloroquine sensitive Plasmodium falciparum NF54 by spectroscopic method; assay type: functional, organism-based
[2] = Selectivity index, ratio of IC50 for CHO cells to IC50 for chloroquine sensitive Plasmodium falciparum NF54; assay type: toxicity, cell-based; conditions: hamster, read-out: Ratio IC50
[3] = organism: Rattus norvegicus; test: Inhibition of voltage-gated calcium channel in Wistar rat synaptoneurosomes at 100 uM after 30 mins by fluorescent ratiometric indicator method
[4] = tested on: CHO; test: Cytotoxicity against CHO cells by MTT assay; assay type: cell-based; conditions: Cricetulus griseus
[5] = tested on: Plasmodium falciparum; test: Antiplasmodial activity against multidrug resistant Plasmodium falciparum Dd2 by spectroscopic method; assay type: functional, organism-based
[6] = tested on: Plasmodium falciparum Dd2; test: Inhibition of voltage-gated calcium channel in Plasmodium flaciparum Dd2 cells assessed as potentiation of choloroquine induced antimalarial activity by measuring ratio of chloroquine IC50 in presence to absence of compound at 1 uM
[7] = tested on: Plasmodium falciparum NF54; test: Inhibition of voltage-gated calcium channel in Plasmodium flaciparum NF54 cells assessed as potentiation of choloroquine induced antimalarial activity by measuring chloroquine IC50 in presence of compound at 1 uM
[8] = tested on: Plasmodium falciparum Dd2; test: Inhibition of voltage-gated calcium channel in Plasmodium flaciparum Dd2 cells assessed as reversal of choloroquine resistance at 1 uM relative to control; design: scale not given: the % may be the effect or the level left
[9] = Inhibition of voltage-gated calcium channel in Wistar rat synaptoneurosomes after 30 mins by fluorescent ratiometric indicator method
[10] = tested on: Plasmodium falciparum Dd2; test: Inhibition of voltage-gated calcium channel in Plasmodium flaciparum Dd2 cells assessed as reversal of choloroquine resistance at 0.8 uM relative to control; design: scale not given: the % may be the effect or the level left
[11] = tested on: Plasmodium falciparum Dd2; test: Inhibition of voltage-gated calcium channel in Plasmodium flaciparum Dd2 cells assessed as reversal of choloroquine resistance at 0.5 uM relative to control; design: scale not given: the % may be the effect or the level left

Row | SMILES | IC50 [1] | selectivity ratio [2] | inhibition [3] | IC50 [4] | IC50 [5] | Ratio IC50 [6] | Activity [7] | Activity [8] | IC50 [9] | Activity [10] | Activity [11]
1 | O=[N+]([O-])c1ccc(CNC23CC4CC(CC(C4)C2)C3)cc1 | 74 µM | > 4.7 | 86% | > 349 µM | – | – | – | – | – | – | –
2 | OC12C3C4CC5C6C4C1C6C(C53)N2CCN1CCN(Cc2ccccc2)CC1 (stereo unspecified) | 9.09 µM | > 29.1 | 51% | > 265 µM | 6.28 µM | 0.81 | inactive | 19% | 100 µM | – | –
3 | COCCOC(=O)C1=C(C)NC(C)=C(C(=O)OC(C)C)C1c1cccc([N+](=O)[O-])c1 (stereo unspecified) [NIMODIPINE] | – | – | – | – | – | – | – | – | 0.008 µM | – | –
4 | N#Cc1c2ccccc2cn1CCCNC12CC3CC(CC(C3)C1)C2 | 3.83 µM | 2.1 | 54% | 8.2 µM | 3.89 µM | 0.58 | inactive | 42% | 100 µM | – | –
5 | CN(C)c1cccc2cc(S(=O)(=O)NCCN3C4C5C6CC7C8C6C4C8C3(O)C75)ccc12 (stereo unspecified) | 3.76 µM | 31.7 | > 95% | 119 µM | 6.25 µM | 0.19 | inactive | 81% | 0.48 µM | – | –
6 | CCN(CC)CCCC(C)Nc1ccnc2cc(Cl)ccc12 (stereo unspecified) [CHLOROQUINE] | – | – | – | 35.8 µM | – | – | – | – | – | – | –
7 | O=[N+]([O-])c1ccc(NCCCNC23CC4CC(CC(C4)C2)C3)c([N+](=O)[O-])c1 | 1.13 µM | 7.1 | 12% | 8.01 µM | 18.8 µM | – | – | – | – | – | –
8 | O=[N+]([O-])c1ccc(CNC23OC4C5C6CC(C7C6C4C72)C53)cc1 (stereo unspecified) | 0.718 µM | > 449 | 48% | > 322 µM | 54.8 µM | 0.65 | inactive | 25% | – | – | –
9 | c1ccc(CNC23CC4CC(CC(C4)C2)C3)cc1 | 126 µM | > 3.3 | 40% | > 414 µM | – | – | – | – | – | – | –
10 | COc1ccc(CNC23CC4CC(CC(C4)C2)C3)cc1 | 39.4 µM | > 9.4 | 71% | > 368 µM | – | – | – | – | – | – | –
11 | CN(C)c1cccc2c(S(=O)(=O)NCCCNC34CC5CC(CC(C5)C3)C4)cccc12 | 2.83 µM | 2.6 | > 95% | 7.4 µM | 7.01 µM | 0.35 | inactive | 65% | 0.27 µM | – | –
12 | O=C(OCCNC12OC3C4C5CC(C6C5C3C61)C42)c1cccc(/C=C/[N+](=O)[O-])c1 (stereo unspecified) | 26.2 µM | > 9.7 | > 95% | > 254 µM | 34.5 µM | 0.55 | inactive | 45% | 0.98 µM | – | –
13 | COc1ccc(CCN(C)CCCC(C#N)(c2ccc(OC)c(OC)c2)C(C)C)cc1OC (stereo unspecified) | – | – | – | – | – | 0.27 | – | 73% | – | 63% | 47%
14 | OC12C3C4CC5C6C4C1C6C(C53)N2Cc1ccccc1 (stereo unspecified) | 7.62 µM | 11.1 | > 95% | 84.8 µM | 13.3 µM | 0.36 | inactive | 64% | 35 µM | – | –
15 | c1ccc(CNC23OC4C5C6CC(C7C6C4C72)C53)cc1 (stereo unspecified) | > 10 µM | – | 52% | > 10 µM | > 10 µM | – | inactive | – | 86 µM | – | –
